SMILES strings stand for the structures.

The test system of assay [1] is broiler chickens. Nature of the assay: Growth performance trial with broiler chickens, day 8 to day 22 (Rhodobacter sphaeroides biomass). The conditions noted are these: dose 10 mg/kg. Type of assay: in vivo, chickens (ROSS PM3). The procedure: A growth performance trial with broiler chickens was performed from day 8 to day 22. The chickens were housed in wire-floored battery cages. From day-old until day 8, the chickens were fed a pre-experimental diet based on wheat, maize and soybean meal. In the experimental period (day 8 to 22) the chickens received diets based on wheat, rye and soybean meal (composition see Table 1). Groups of birds were weighed on days 8, 15, and 22. The feed consumption for the intermediate periods was determined and body weight gain and feed conversion ratio were calculated.

Assay [2] has as its system broiler chickens. Nature of the assay: Second broiler chicken growth trial with crystalline PHB, day 8 to day 29. To be noted: Day 8-29; dose 10 mg/kg. It is filed as in vivo.
The subject of assay [3] is Artemia nauplii infected with Vibrio campbellii LMG21363. Nature of the assay: In vivo challenge test of Artemia nauplii with Vibrio campbellii LMG21363 (Example 8). Set-up: species or system Artemia franciscana. To be noted: 2 days challenge, mean ± standard error. Here is the method: All challenge tests were performed with high quality hatching cysts of Artemia franciscana (EG® Type, batch 6940, INVE Aquaculture, Baasrode, Belgium). Two hundred mg of cysts were hydrated in 18 ml of tap water during 1 h. Sterile cysts and nauplii were obtained via decapsulation, adapted from the protocol described by Marques et al. (2004). […] The decapsulation was stopped after 2 min by adding 14 ml of Na2S2O3 (10 gl^−1). During the reaction, 0.22 μm filtered aeration was provided. The decapsulated cysts were washed with autoclaved artificial seawater containing 35 g l^−1 of Instant Ocean synthetic sea salt (Aquarium Systems Inc., Sarrebourg, France). The cysts were resuspended in a 50 ml tube containing 30 ml of filtered and autoclaved artificial seawater and hatched for 24 h on a rotor (4 min^−1) at 28° C. with constant illumination (approximately 2000 lux). Vibrio campbellii LMG21363 was stored in 40% glycerol at −80° C. Ten μl of this stored culture was inoculated into fresh Marine Broth (Difco Laboratories, Detroit, USA) and incubated overnight at 28° C. under constant agitation (100 min-1). The grown cultures of Vibrio campbellii were washed in autoclaved artificial seawater and the suspensions were diluted to an OD600 of approximately 0.1. 20 μl of the diluted suspensions was inoculated into the Artemia culture water. Aeromonas hydrophila LVS3 was used as feed for the nauplii (Defoirdt et al., 2005). The strain was grown overnight on Marine Agar (Difco Laboratories, Detroit, USA), suspended in sterile artificial seawater, diluted to an OD600 of approximately 1 and autoclaved. 300 μl of the autoclaved suspension was added to the Artemia culture water. […] Challenge tests were performed as described by Defoirdt et al. (2005), with slight modifications. Briefly, after hatching, groups of 20 nauplii were transferred to new sterile 50 ml tubes that contained 20 ml of filtered and autoclaved artificial seawater. The tubes were inoculated with Vibrio campbellii LMG21363 (except for the control, where no pathogen was added) and fed with LVS3. For the experiment with fatty acids, the fatty acids were dissolved in artificial seawater at different concentrations (25, 50 and 100 mM). The pH of the solutions was brought back to 7 and the solutions were filtersterilised over a 0.22 μm filter (Millipore, Bedford, USA). After feeding and the addition of the appropriate chemical and/or bacteria, the falcon tubes were put back on the rotor and kept at 28° C. […] All manipulations were done under a laminar flow hood in order to maintain sterility of the cysts and nauplii. Each treatment was done in triplicate.

In assay [4] the test system is Vibrio campbellii LMG21363. Nature of the assay: Growth of Vibrio campbellii LMG21363 in LB medium (OD600). To be noted: pH 6. It is filed as cell-based. Here is the method:
Vibrio campbellii LMG21363 was grown overnight in LB medium on a shaker at 28° C. Subsequently, the suspension was diluted 1:50 (v/v) in LB medium supplemented with butyrate (Sigma-Aldrich, Bornem, Belgium) or β-hydroxybutyrate (Sigma-Aldrich, Bornem, Belgium). For each compound, three solutions were made with the following concentrations: 25, 50 and 100 mM. LB medium without supplements was used as a control. The pH of all solutions was set at 6, 7 or 8. After inoculation, the suspensions were incubated at 28° C. in a static mode. Growth was monitored by measuring the optical density (OD600) during 20 h. Each treatment was performed in triplicate.

Where [5] appears, read: 25 mM in culture water at start.
Setting [6] is: 100 mM in culture water at start.

In assay [1] (Day 8-15), `COC[C@H]1O[C@@H](OC2OC[C@@H]3O[C@]4(O[C@H]3[C@H]2OC(=O)C(C)C)O[C@H](C)[C@@](O)(C(C)=O)[C@@H]2OCO[C@H]24)[C@@H](OC)[C@@H](O)[C@@H]1O[C@@H]1O[C@H](C)[C@H](OC)[C@H](O[C@H]2C[C@@]3(C)OC4(C[C@@H](O)[C@H](O[C@H]5C[C@@H](O)[C@H](OC(=O)c6c(C)c(Cl)c(O)c(Cl)c6OC)[C@@H](C)O5)[C@@H](C)O4)O[C@@H]3[C@@H](C)O2)[C@H]1O` (stereo partly drawn) [Avilamycin] had a Feed conversion of 1.652 ± 0.090 g feed/g gain, a Feed intake of 552 ± 43 g/bird and a Weight gain of 334 ± 20 g/bird. Moreover, in assay [1] (Day 8-22), the Feed conversion amounted to 1.778 ± 0.072 g feed/g gain, the “Feed conversion relative to control (control 100.0)” value amounted to 94.9, the Feed intake was determined as 1441 ± 100 g/bird and the “Feed intake relative to control (control 100.0)” value turned out to be 101.1. In addition, in assay [1] (Day 8-22), the Weight gain came to 810 ± 39 g/bird and the “Weight gain relative to control (control 100.0)” value turned out to be 106.7. In assay [1] (Day 15-22), this compound came in with a Feed conversion of 1.867 ± 0.078 g feed/g gain, a Feed intake of 889 ± 67 g/bird and a Weight gain of 476 ± 24 g/bird. Besides, in assay [2], the FCR stood at 1.756 ± 0.079 g feed/g gain; the “FCR, % of control” value is 94.5%; the Feed intake came to 2402 ± 196 g/bird; the “Feed intake, % of control” value was 101.0%. In assay [2], the Weight gain worked out at 1367 ± 85 g/bird and the “Weight gain, % of control” value amounted to 106.6%.
In the case of `CCCC(=O)O` [butyrate], the figures for the Survival in assay [3] (setting [5]) and in assay [3] (setting [6]) were 48 ± 2 % and 50 ± 5 %, respectively.
Regarding `CC(O)CC(=O)O` (stereo not drawn) [β-hydroxybutyrate, 3-hydroxybutyrate], the figures for the “Growth of Vibrio campbellii” value in assay [4] (100 mM) and in assay [4] (lower concentrations) were “strongly inhibited” and “not completely inhibited”, respectively. Moreover, the Survival in assay [3] (setting [5]) stood at 38 ± 15%; in assay [3] (setting [6]), 40 ± 3 %.
